The results in this text go back to patent publication US10583112B2, “Benzo[b]furans as bromodomain inhibitors” (GlaxoSmithKline Intellectual Property (No. 2) Limited, priority 2016, dated 2020).

For one assay, the target named is T1, BRD4 BD2 (Homo sapiens, UniProt O60885, Y97A).
T1 construct: BRD4 (1-477) (Y97A) and (Y390A); made in house; host or cells: E. coli (pET15b vector)
As to the kind of experiment: BRD4 BD2 TR-FRET competition assay. Format: binding. The note with it: for Selectivity for BRD4 BD2 over BRD4 BD1 (BRD4 BD2 pIC50 - BRD4 BD1 pIC50): in at least one of the TR-FRET assays; for fold selective for BRD4 BD2 over BRD4 BD1: inferred from the log unit selectivity; for IC50: mean where stated, n given, read-out: pIC50 in the BRD4 BD2 TR-FRET assay (converted). How it is done: Bromodomain binding was assessed utilising a time resolved fluorescent resonance energy transfer (TR-FRET) competition assay. […] Europium chelate, conjugated to an anti-6*His antibody, was utilised as the donor fluorophore in the TR-FRET pair.
In order to generate a TR-FRET signal, donor fluorophore is excited by a laser at λ337 nm, which subsequently leads to emission at λ618 nm.
In order to monitor differential binding to either BD1 or BD2, single residue mutations of key tyrosines to alanine were made in the acetyl lysine binding pockets. To validate this approach, a double residue mutant tandem domain protein was produced for each of the BET family members.
Final purification was completed by Superdex 200 prep grade size exclusion column. Purified protein was stored at −80° C. in 20 mM HEPES pH 7.5 and 100 mM NaCl.
All assay components were dissolved in an assay buffer composing of 50 mM HEPES pH7.4, 50 mM NaCl, 5% Glycerol, 1 mM DTT and 1 mM CHAPS. […] An equal volume of 3 nM of anti-6*His Europium chelate was added to all wells, followed by a further 30 minute incubation at room temperature. TR-FRET was detected using a Perkin Elmer Multimode plate reader, by exciting the donor fluorophore at λ337 nm and subsequently, after a delay of 50 μsecs, measuring emission of the donor and acceptor fluorophores at λ615 nm and λ665 nm, respectively.
cA four parameter curve fit of the following form was then applied: y=a+((b−a)/(1+(10^x/10^c)^d) • Where ‘a’ is the minimum, ‘b’ is the Hill slope, ‘c’ is the pIC50 and ‘d’ is the maximum.

The target of the next assay is T2, BRD4 BD1 (Homo sapiens, UniProt O60885, Y390A).
T2 construct: BRD4 (1-477) (Y97A) and (Y390A); made in house; host or cells: E. coli (pET15b vector)
As to the kind of experiment: BRD4 BD1 TR-FRET competition assay. It counts as binding. The note with it: mean, n given; read-out: pIC50 in the BRD4 BD1 TR-FRET assay (converted). How it is done:
Bromodomain binding was assessed utilising a time resolved fluorescent resonance energy transfer (TR-FRET) competition assay. To enable this approach a known, high affinity, pan-BET interacting small molecule was labelled with Alexa Fluor® 647, which is a far-red-fluorescent dye (Reference Compound X). Reference Compound X acts as a reporter of bromodomain binding and is the acceptor fluorophore component of the TR-FRET pair. Europium chelate, conjugated to an anti-6*His antibody, was utilised as the donor fluorophore in the TR-FRET pair. […]
The competition of the compounds of formula (I) with Reference Compound X for binding to the BET family (BRD2, BRD3, BRD4 and BRDT) was assessed using protein truncates spanning both bromodomain 1 (BD1) and bromodomain 2 (BD2). […] Utilising a Fluorescence Polarisation approach, binding affinities for each of the single and double mutants for Reference Compound X were determined. […]
All assay components were dissolved in an assay buffer composing of 50 mM HEPES pH7.4, 50 mM NaCl, 5% Glycerol, 1 mM DTT and 1 mM CHAPS. […] TR-FRET was detected using a Perkin Elmer Multimode plate reader, by exciting the donor fluorophore at λ337 nm and subsequently, after a delay of 50 μsecs, measuring emission of the donor and acceptor fluorophores at λ615 nm and λ665 nm, respectively. […]

The test system of assay [1] is single mutated bromodomain tandem proteins (BET family). As to the kind of experiment: Fluorescence Polarisation binding affinity, single mutants. Set-up: species or system Human. The method, then:
(§1) The competition of the compounds of formula (I) with Reference Compound X for binding to the BET family (BRD2, BRD3, BRD4 and BRDT) was assessed using protein truncates spanning both bromodomain 1 (BD1) and bromodomain 2 (BD2). In order to monitor differential binding to either BD1 or BD2, single residue mutations of key tyrosines to alanine were made in the acetyl lysine binding pockets. To validate this approach, a double residue mutant tandem domain protein was produced for each of the BET family members. Utilising a Fluorescence Polarisation approach, binding affinities for each of the single and double mutants for Reference Compound X were determined. […] The affinities of the single mutated bromdomain tandem proteins for Reference Compound X were equi-potent with the corresponding non-mutated BET protein. […] In the TR-FRET competition assay, Reference Compound X is used at a concentration that is equivalent to the Kd for the non-mutated bromodomain, which ensures that no binding at the mutated bromodomain is detected. […]

For assay [2], the system named is double residue mutant tandem domain protein of each of the BET family members. Kind of assay: Fluorescence Polarisation binding affinity, double mutants. Set-up: species or system Human. How it is done:
as §1

Regarding `CNC(=O)c1cc(C(=O)N[C@H]2[C@@H]3CN(C(=O)OC(C)(C)C)C[C@@H]32)cc2c1O[C@H](C)[C@H]2c1ccccc1` [Example 38, (1R,5S,6S)-tert-Butyl 6-((2R,3S)-2-methyl-7-(methylcarbamoyl)-3-phenyl-2,3-dihydrobenzofuran-5-carboxamido)-3-azabicyclo[3.1.0]hexane-3-carboxylate], on BRD4 BD2, the “Selectivity for BRD4 BD2 over BRD4 BD1 (BRD4 BD2 pIC50 - BRD4 BD1 pIC50)” value was 3.3 log unit, the “fold selective for BRD4 BD2 over BRD4 BD1” value is “at least 100 fold” and the IC50 is 0.01 µM. In addition, the IC50 on BRD4 BD1 was 20 µM.

For the molecule `CNC(=O)c1cc(C(=O)NCCCC2CNCCO2)cc2c1O[C@H](C)[C@H]2c1ccccc1` (stereo partly drawn) [Example 54, (2R,3S)—N^7,2-Dimethyl-N^5-(3-(morpholin-2-yl)propyl)-3-phenyl-2,3-dihydrobenzofuran-5,7-dicarboxamide], at BRD4 BD2, the “Selectivity for BRD4 BD2 over BRD4 BD1 (BRD4 BD2 pIC50 - BRD4 BD1 pIC50)” value is listed as 3.2 log unit, the “fold selective for BRD4 BD2 over BRD4 BD1” value is on record as “at least 1000 fold” and the IC50 was 0.0158 µM. Also, the IC50 at BRD4 BD1 is 25.1 µM.

`CNC(=O)c1cc(C(=O)Nc2ccnnc2)cc2c1O[C@@H](CF)[C@@H]2c1ccccc1` [Example 193, (2R,3R)-2-(fluoromethyl)-N^7-methyl-3-phenyl-N^5-(pyridazin-4-yl)-2,3-dihydrobenzofuran-5,7-dicarboxamide]: on BRD4 BD2, the IC50 was 1 to 100 µM.

Take `CNC(=O)c1cc(C(=O)Nc2cn(C)nn2)cc2c1O[C@@H](CF)[C@@H]2c1ccccc1` [Example 194, (2R,3R)-2-(fluoromethyl)-N^7-methyl-N^5-(1-methyl-1H-1,2,3-triazol-4-yl)-3-phenyl-2,3-dihydrobenzofuran-5,7-dicarboxamide]: on BRD4 BD2, the IC50 was 1 to 100 µM.

On to `CNC(=O)c1cc(C(=O)Nc2nncn2C)cc2c1O[C@@H](CF)[C@@H]2c1ccccc1` [Example 195, (2R,3R)-2-(fluoromethyl)-N^7-methyl-N^5-(4-methyl-4H-1,2,4-triazol-3-yl)-3-phenyl-2,3-dihydrobenzofuran-5,7-dicarboxamide], for which the IC50 at BRD4 BD2 was 1 to 100 µM.

On to `CNC(=O)c1cc(C(=O)Nc2cncnc2)cc2c1O[C@@H](CF)[C@@H]2c1ccccc1` [Example 200, (2R,3R)-2-(Fluoromethyl)-N^7-methyl-3-phenyl-N^5-(pyrimidin-5-yl)-2,3-dihydrobenzofuran-5,7-dicarboxamide], for which the IC50 on BRD4 BD2 was 1 to 100 µM.

For the molecule `CNC(=O)c1cc(C(=O)N[C@H]2[C@@H]3COC[C@@H]32)cc2c1O[C@@H](C)[C@@H]2c1cccc(OCCOC)c1` [Example 201, (2S,3R)-N^5-((1R,5S,6r)-3-oxabicyclo[3.1.0]hexan-6-yl)-3-(3-(2-methoxyethoxy)phenyl)-N^7,2-dimethyl-2,3-dihydrobenzofuran-5,7-dicarboxamide], on BRD4 BD2, the IC50 was 1 to 100 µM.

As for `COc1ccc2c(c1)C(c1ccc(Cl)cc1)=N[C@@H](CC(=O)NCCCCCNC(=O)CCCCCC1(C)/C(=C/C=C/C=C/C3=[N+](CCCCS(=O)(=O)O)c4ccc(S(=O)(=O)O)cc4C3(C)C)N(CCCCS(=O)(=O)[O-])c3ccc(S(=O)(=O)O)cc31)c1nnc(C)n1-2` (stereo partly drawn) [Reference Compound X], the “affinity versus corresponding non-mutated BET protein” value in assay [1] is listed as “equi-potent”. Besides, the “reduction in Kd (affinity) versus non mutated, wild type tandem BET proteins” value in assay [2] is on record as > 1000 fold.
